# Measurements: publication PMC4538536, “In Silico-Based High-Throughput Screen for Discovery of Novel Combinations for Tuberculosis Treatment” (Antimicrobial Agents and Chemotherapy, 2015)
# Where two headings read alike, the source gives them in different places.
# Key:
# M. tuberculosis H37Rv [1] = assay: MIC determination, resazurin-based microplate assay; assay type: cell-based, Mycobacterium tuberculosis; conditions: single drug
# M. tuberculosis H37Rv [2] = assay: In vitro bactericidal-effect analysis (CFU enumeration of checkerboard wells); assay type: cell-based, Mycobacterium tuberculosis; conditions: single drug at its MIC (FIC of 1); positive = reduction in CFU
# Procedure: For determining the extent of the bactericidal effect, sample wells which remained blue in the resazurin microtiter assay (REMA) and whose ΣFICs were within the synergistic-to-additive range (<0.7 for doublets and <1.5 for triplets) were plated on Middlebrook 7H10 agar medium and incubated at 37°C for 21 to 28 days, following which bacterial colonies were enumerated to obtain the net reduction in CFU in comparison to the counts for the untreated controls at the start of drug testing, as well as to that achieved when M. tuberculosis was exposed to each drug alone.
# [3] = In vivo pharmacokinetics in infected mice (plasma, LC-MS/MS); set-up: species or system BALB/c mice; conditions: BALB/c, mouse, plasma, po, steady state, infected mice
# Procedure: The drugs were formulated in 0.5% hydroxypropyl methyl cellulose (HPMC)–0.1% Tween 80 suspensions as 3- or 4-drug combinations. Formulations were prepared by weighing and adding each compound to the bottle, according to the design. Formulation vehicle was added, and the suspension was stirred overnight. Only uniform suspensions were used, while those that precipitated were abandoned. Formulations were prepared every week, and compound stability was estimated at the end of the week. Pharmacokinetics (PK) analysis was performed on infected mice on the 20th day of dosing. Blood samples were collected from each mouse at 0.5, 2, 4, 6, and 24 h after compound administration. Blood samples of about 30 μl were collected from mice in all groups by serial sampling via the saphenous vein into Microvette CB300 tubes (Starstedt, Germany) coated with EDTA, and plasma (10 μl) was separated following centrifugation. Plasma samples were stored at –20°C until analysis using liquid chromatography-tandem mass spectrometry (LC-MS/MS).
# A 1-mg/ml stock solution of each compound was prepared in dimethyl sulfoxide (DMSO) for all of the analytes except PZA and LZD, for which the stock solution was 10 mg/ml in DMSO, and RIF, for which the stock solution was prepared in 50% acetonitrile in water. Three different sets of calibration standard (CS) combinations were prepared by 2-fold dilution of the stock solutions. CS set 1 contained analytes CLO, BDQ, PA824, PZA, and SQ109, CS set 2 contained analytes BTZ043, MXF, THI, EMB, and PZA, and CS set 3 contained LZD, INH, RIF, and PZA. A 16-point calibration curve was utilized for all analytes, and the standard curves ranged from 0.0005 to 20 μg/ml except for PZA and LZD, for which the standard curve range was 0.006 to 200 μg/ml. Plasma samples were precipitated by adding chilled acetonitrile (1:10, vol/vol) containing carbamazepine as an internal standard (10 ng/ml). Samples were vortexed and then centrifuged at 4,000 rpm for 30 min at 10°C. The resulting supernatant was mixed with the mobile phase (50% acetonitrile in water with 0.1% formic acid). Five microliters of the sample was injected on to a liquid chromatographic system (Acquity ultraperformance liquid chromatography [UPLC] system, Waters, Milford, MA) coupled to a triple-quadrupole mass spectrometer (Xevo TQ-S; Waters, Milford, MA). Samples were separated on an LC column (ACE 3 C18, 50 by 4.6 mm, 3 μm particle size; Advanced Chromatography Technologies, Aberdeen, Scotland) by isocratic elution with 40 parts of 20 mM ammonium formate containing 0.1% (vol/vol) formic acid and 60 parts of acetonitrile at a flow rate of 0.5 ml/min with a run time of 4 min. Samples were acquired in positive ion mode and detected by multiple reaction monitoring (MRM). The concentrations of the analyte were determined from a standard curve obtained by plotting known concentrations of the analyte against peak area ratios (analyte/internal standard peak response).
# PK analyses of the plasma concentration-time relationships were performed with Phoenix software (version 6.2; Pharsight, USA). A noncompartmental analysis program, model 200, was used to calculate PK parameters. The maximum concentration of drug in plasma (Cmax), time to Cmax (Tmax), elimination half-life (t1/2), and area under the concentration-time curve (AUC) from time zero to infinity (AUC0–∞) were estimated. AUC was computed using the trapezoidal rule (linear up and log down), and the AUC0–∞ was considered only when the extrapolated AUC was not more than 20% of the original value. A minimum of three sample points in the terminal slope were used to calculate half-life.
# [4] = 150 mg/kg, Group 1 quartet CFZ 20/BDQ 25/PA824 50/PZA 150 mg/kg oral, read-out: AUC0-24 in Quartet
# [5] = 150 mg/kg, Group 1 quartet CFZ 20/BDQ 25/PA824 50/PZA 150 mg/kg oral, read-out: Cmax in Quartet
# [6] = 150 mg/kg, Ref. regimen quartet INH 30/RIF 10/EMB 100/PZA 150 mg/kg oral, read-out: AUC0-24 in Quartet
# [7] = 150 mg/kg, Ref. regimen quartet INH 30/RIF 10/EMB 100/PZA 150 mg/kg oral, read-out: Cmax in Quartet
# [8] = 150 mg/kg, Group 9 quartet EMB 100/SQ109 25/LZD 130/PZA 150 mg/kg oral, read-out: AUC0-24 in Quartet
# [9] = 150 mg/kg, Group 9 quartet EMB 100/SQ109 25/LZD 130/PZA 150 mg/kg oral, read-out: Cmax in Quartet
compound,measurement,setting,value
NCC[C@H](O)C(=O)N[C@@H]1C[C@H](N)[C@@H](O[C@H]2O[C@H](CN)[C@@H](O)[C@H](O)[C@H]2O)[C@H](O)[C@H]1O[C@H]1O[C@H](CO)[C@@H](O)[C@H](N)[C@H]1O [Amikacin],MIC,M. tuberculosis H37Rv [1]; Mycobacterium tuberculosis,0.43 µM
same,ΔLog10 CFU/ml at the MIC,M. tuberculosis H37Rv [2],−0.20 Log10 CFU/ml
C[C@H]1COC2(CCN(c3nc(=O)c4cc(C(F)(F)F)cc([N+](=O)[O-])c4s3)CC2)O1 [BTZ043],MIC,M. tuberculosis H37Rv [1]; Mycobacterium tuberculosis,0.0009 µM
same,ΔLog10 CFU/ml at the MIC,M. tuberculosis H37Rv [2],1.40 Log10 CFU/ml
same,AUC(0-t),"[3]; 25 mg/kg, Group 6 triplet BTZ043 37.5/THI 800/SQ109 25 mg/kg oral, read-out: AUC0-24 in Triplet",15 ± 6.2 µg·h/mL
same,Cmax,"[3]; 25 mg/kg, Group 6 triplet BTZ043 37.5/THI 800/SQ109 25 mg/kg oral, read-out: Cmax in Triplet",2100 ± 400 ng/mL
same,AUC(0-t),"[3]; 200 mg/kg, Group 3 triplet BTZ043 37.5/SQ109 25/MXF 200 mg/kg oral, read-out: AUC0-24 in Triplet",11.1 ± 5 µg·h/mL
same,Cmax,"[3]; 200 mg/kg, Group 3 triplet BTZ043 37.5/SQ109 25/MXF 200 mg/kg oral, read-out: Cmax in Triplet",2300 ± 900 ng/mL
CC[C@H]1OC(=O)[C@H](C)[C@@H](O[C@H]2C[C@@](C)(OC)[C@@H](O)[C@H](C)O2)[C@H](C)[C@@H](O[C@@H]2O[C@H](C)C[C@H](N(C)C)[C@H]2O)[C@](C)(OC)C[C@@H](C)C(=O)[C@H](C)[C@@H](O)[C@]1(C)O [Clarithromycin],MIC,M. tuberculosis H37Rv [1]; Mycobacterium tuberculosis,9.63 µM
same,ΔLog10 CFU/ml at the MIC,M. tuberculosis H37Rv [2],0.75 Log10 CFU/ml
CC(C)/N=c1\cc2n(-c3ccc(Cl)cc3)c3ccccc3nc-2cc1Nc1ccc(Cl)cc1 [Clofazimine],MIC,M. tuberculosis H37Rv [1]; Mycobacterium tuberculosis,0.26 µM
same,ΔLog10 CFU/ml at the MIC,M. tuberculosis H37Rv [2],0.72 Log10 CFU/ml
same,AUC(0-t),"[3]; 50 mg/kg, Group 1 triplet CFZ 20/BDQ 25/PA824 50 mg/kg oral, read-out: AUC0-24 in Triplet",42.8 ± 5.4 µg·h/mL
same,Cmax,"[3]; 50 mg/kg, Group 1 triplet CFZ 20/BDQ 25/PA824 50 mg/kg oral, read-out: Cmax in Triplet",2300 ± 200 ng/mL
same,AUC(0-t),[3]; [4],48 ± 5.2 µg·h/mL
same,Cmax,[3]; [5],2400 ± 200 ng/mL
N[C@@H]1CON=C1O [D-Cycloserine],MIC,M. tuberculosis H37Rv [1]; Mycobacterium tuberculosis,30.6 µM
same,ΔLog10 CFU/ml at the MIC,M. tuberculosis H37Rv [2],0.87 Log10 CFU/ml
NNC(=O)c1ccncc1 [Isoniazid],MIC,M. tuberculosis H37Rv [1]; Mycobacterium tuberculosis,0.22 µM
same,ΔLog10 CFU/ml at the MIC,M. tuberculosis H37Rv [2],1.02 Log10 CFU/ml
same,AUC(0-t),"[3]; 100 mg/kg, Ref. regimen triplet INH 30/RIF 10/EMB 100 mg/kg oral, read-out: AUC0-24 in Triplet",19.8 ± 4.7 µg·h/mL
same,Cmax,"[3]; 100 mg/kg, Ref. regimen triplet INH 30/RIF 10/EMB 100 mg/kg oral, read-out: Cmax in Triplet",10800 ± 2900 ng/mL
same,AUC(0-t),[3]; [6],12 ± 3.4 µg·h/mL
same,Cmax,[3]; [7],7000 ± 3200 ng/mL
NC[C@H]1O[C@H](O[C@H]2[C@H](O)[C@@H](O[C@H]3O[C@H](CO)[C@@H](O)[C@H](N)[C@H]3O)[C@H](N)C[C@@H]2N)[C@H](O)[C@@H](O)[C@@H]1O [Kanamycin],MIC,M. tuberculosis H37Rv [1],1.61 µM
same,ΔLog10 CFU/ml at the MIC,M. tuberculosis H37Rv [2],0.44 Log10 CFU/ml
CC(=O)NC[C@H]1CN(c2ccc(N3CCOCC3)c(F)c2)C(=O)O1 [Linezolid],MIC,M. tuberculosis H37Rv [1]; Mycobacterium tuberculosis,2.31 µM
same,ΔLog10 CFU/ml at the MIC,M. tuberculosis H37Rv [2],0.25 Log10 CFU/ml
same,AUC(0-t),"[3]; 130 mg/kg, Group 9 triplet EMB 100/SQ109 25/LZD 130 mg/kg oral, read-out: AUC0-24 in Triplet",154 ± 8.8 µg·h/mL
same,Cmax,"[3]; 130 mg/kg, Group 9 triplet EMB 100/SQ109 25/LZD 130 mg/kg oral, read-out: Cmax in Triplet",14100 ± 100 ng/mL
same,AUC(0-t),[3]; [8],178 ± 12.2 µg·h/mL
same,Cmax,[3]; [9],14900 ± 1200 ng/mL
C[C@@H](O)[C@H]1C(=O)N2C(C(=O)O)=C(S[C@@H]3CN[C@H](C(=O)N(C)C)C3)[C@H](C)[C@H]12 [Meropenem],MIC,M. tuberculosis H37Rv [1]; Mycobacterium tuberculosis,8.15 µM
same,ΔLog10 CFU/ml at the MIC,M. tuberculosis H37Rv [2],0.57 Log10 CFU/ml
NC(=O)c1cnccn1 [Pyrazinamide],AUC(0-t),[3]; [4],115 ± 6.5 µg·h/mL
same,Cmax,[3]; [5],64000 ± 9800 ng/mL
same,AUC(0-t),"[3]; 150 mg/kg, Group 2 quartet SQ109 25/BDQ 25/PA824 50/PZA 150 mg/kg oral, read-out: AUC0-24 in Quartet",148 ± 2.1 µg·h/mL
same,Cmax,"[3]; 150 mg/kg, Group 2 quartet SQ109 25/BDQ 25/PA824 50/PZA 150 mg/kg oral, read-out: Cmax in Quartet",64500 ± 3100 ng/mL
same,AUC(0-t),"[3]; 150 mg/kg, Group 3 quartet BTZ043 37.5/SQ109 25/MXF 200/PZA 150 mg/kg oral, read-out: AUC0-24 in Quartet",156 ± 13.2 µg·h/mL
same,Cmax,"[3]; 150 mg/kg, Group 3 quartet BTZ043 37.5/SQ109 25/MXF 200/PZA 150 mg/kg oral, read-out: Cmax in Quartet",42000 ± 700 ng/mL
same,AUC(0-t),"[3]; 150 mg/kg, Group 5 quartet EMB 100/BDQ 25/SQ109 25/PZA 150 mg/kg oral, read-out: AUC0-24 in Quartet",144 ± 29.5 µg·h/mL
same,Cmax,"[3]; 150 mg/kg, Group 5 quartet EMB 100/BDQ 25/SQ109 25/PZA 150 mg/kg oral, read-out: Cmax in Quartet",67200 ± 2500 ng/mL
same,AUC(0-t),"[3]; 150 mg/kg, Group 6 quartet BTZ043 37.5/THI 800/SQ109 25/PZA 150 mg/kg oral, read-out: AUC0-24 in Quartet",154 ± 23.8 µg·h/mL
same,Cmax,"[3]; 150 mg/kg, Group 6 quartet BTZ043 37.5/THI 800/SQ109 25/PZA 150 mg/kg oral, read-out: Cmax in Quartet",40200 ± 13300 ng/mL
same,AUC(0-t),"[3]; 150 mg/kg, Group 7 quartet PA824 50/BDQ 25/MXF 400/PZA 150 mg/kg oral, read-out: AUC0-24 in Quartet",144 ± 16.9 µg·h/mL
same,Cmax,"[3]; 150 mg/kg, Group 7 quartet PA824 50/BDQ 25/MXF 400/PZA 150 mg/kg oral, read-out: Cmax in Quartet",33200 ± 2300 ng/mL
same,AUC(0-t),"[3]; 150 mg/kg, Group 8 quartet PA824 50/BDQ 25/EMB 100/PZA 150 mg/kg oral, read-out: AUC0-24 in Quartet",127 ± 9 µg·h/mL
same,Cmax,"[3]; 150 mg/kg, Group 8 quartet PA824 50/BDQ 25/EMB 100/PZA 150 mg/kg oral, read-out: Cmax in Quartet",69000 ± 12700 ng/mL
same,AUC(0-t),[3]; [8],119 ± 7 µg·h/mL
same,Cmax,[3]; [9],39500 ± 4400 ng/mL
same,AUC(0-t),[3]; [6],161 ± 18.8 µg·h/mL
same,Cmax,[3]; [7],69700 ± 9700 ng/mL
[H]/N=C(/N)N[C@H]1[C@H](O)[C@@H](O)[C@H](O[C@@H]2O[C@@H](C)[C@](O)(C=O)[C@H]2O[C@@H]2O[C@@H](CO)[C@H](O)[C@@H](O)[C@@H]2NC)[C@@H](N/C(N)=N\[H])[C@@H]1O [Streptomycin],MIC,M. tuberculosis H37Rv [1]; Mycobacterium tuberculosis,0.68 µM
same,ΔLog10 CFU/ml at the MIC,M. tuberculosis H37Rv [2],0.36 Log10 CFU/ml
Capreomycin,MIC,M. tuberculosis H37Rv [1],5.91 µM
same,ΔLog10 CFU/ml at the MIC,M. tuberculosis H37Rv [2],−0.11 Log10 CFU/ml
